Reference: patent EP1921115B1, “Use of 3-hydroxy-cyclohex-2-enone azo based dyes in optical layers” (Clariant Finance (BVI) Limited, priority 2006, dated 2008)

Tests used:
Assay type in all cases: physicochemical
[1] = Solubility in 2,2,3,3 tetrafluoropropanol; conditions: in 2,2,3,3 tetrafluoropropanol at 25 °C
Description: The solubilities were differentiated into three groups: A Good solubility (> 20 g / L) B Medium solubility (>= 10 and <= 20 g / L) C Poor solubility (<10 g / L)

[2] = UV-vis spectra (λ max and ε); conditions: dissolved in CH2Cl2, DMSO or in tfp
Protocol: For UV-vis spectra, λ max and ε values of a compound are determined by using an UV-vis spectrophotometer, the compound was dissolved in CH2Cl2, DMSO or in tfp. The values are obtained by balancing the measurements performed on compound solutions at three different concentrations.

[3] = Thermal decomposition: decomposition point (DP); conditions: sealed aluminum pan, 25 to 400°C, heating rate 10°C/min, nitrogen flow, single measurement
Protocol: For the determination of DP and HR, the compound is incorporated into a sealed aluminum pan. Analysis conditions are as following: Temperature range from 25 to 400°C, heating rate 10°C/min, nitrogen flow of 50 ml/min. Values are determined by single measurement.

Row | Structure (SMILES) | Solubility [1] | ε (at λ max) ([2]; Table A, azo ligands) [L/g/cm] | λ max [2] [nm] | DP [3] [°C] | ε (at λ max) ([2]; Table B, metal complexes) [L/g/cm]
1 | CCOC(=O)C1C(O)=C(N=Nc2ccc(C)cc2[N+](=O)[O-])C(=O)CC1(C)C (centres unmarked) [compound of formula (1)] | A (Good solubility (> 20 g / L)) | 63 | 427 | 282 | 
2 | CCOC(=O)C1C(O)=C(N=Nc2cc([N+](=O)[O-])ccc2O)C(=O)CC1(C)C (centres unmarked) [compound of formula (2)] | A (Good solubility (> 20 g / L)) | 52 | 411 | 253 | 
3 | CCOC(=O)C1C(O)=C(N=Nc2ccc(Cl)cc2[N+](=O)[O-])C(=O)CC1(C)C (centres unmarked) [compound of formula (3)] | A (Good solubility (> 20 g / L)) | 52 | 421 | 274 | 
4 | CCOC(=O)C1C(O)=C(N=Nc2ccccc2[N+](=O)[O-])C(=O)CC1(C)C (centres unmarked) [compound of formula (4)] | B (Medium solubility (>= 10 and <= 20 g / L)) | 52 | 424 | 238 | 
5 | CCOC(=O)C1C(O)=C(N=Nc2ccc(S(C)(=O)=O)cc2[N+](=O)[O-])C(=O)CC1(C)C (centres unmarked) [compound of formula (5)] | A (Good solubility (> 20 g / L)) | 19 | 384 | 200 | 
6 | CCOC(=O)C1C(O)=C(N=Nc2ccc(OC)cc2[N+](=O)[O-])C(=O)CC1(C)C (centres unmarked) [compound of formula (6)] | B (Medium solubility (>= 10 and <= 20 g / L)) | 56 | 448 | 273 | 
7 | CCOC(=O)C1C(O)=C(N=Nc2ccc(C(F)(F)F)cc2[N+](=O)[O-])C(=O)CC1(C)C (centres unmarked) [compound of formula (7)] | A (Good solubility (> 20 g / L)) | 32 | 399 | 276 | 
8 | CCOC(=O)C1C(O)=C(N=Nc2c(Br)cc([N+](=O)[O-])cc2C#N)C(=O)CC1(C)C (centres unmarked) [compound of formula (8)] | B (Medium solubility (>= 10 and <= 20 g / L)) | 55 | 396 | 226 | 
9 | CCOC(=O)C1C(O)=C(N=Nc2ccc([N+](=O)[O-])cc2Br)C(=O)CC1(C)C (centres unmarked) [compound of formula (9)] | A (Good solubility (> 20 g / L)) | 72 | 400 | 285 | 
10 | CCOC(=O)C1C(O)=C(N=Nc2c(C)cc(C)cc2C)C(=O)CC1(C)C (centres unmarked) [compound of formula (10)] | A (Good solubility (> 20 g / L)) | 55 | 413 | 248 | 
11 | CCOC(=O)C1C(O)=C(N=Nc2ccc([N+](=O)[O-])cc2OC)C(=O)CC1(C)C (centres unmarked) [compound of formula (11)] | A (Good solubility (> 20 g / L)) | 44 | 432 | 288 | 
12 | CCOC(=O)C1C(O)=C(N=Nc2cc(OC)c(S(N)(=O)=O)cc2OC)C(=O)CC1(C)C (centres unmarked) [compound of formula (12)] | A (Good solubility (> 20 g / L)) | 25 | 438 | 279 | 
13 | Cc1ccc(N=NC2=C(O)C(C#N)C(C)(C)CC2=O)c([N+](=O)[O-])c1 (centres unmarked) [compound of formula (13)] | C (Poor solubility (<10 g / L)) | 52 | 442 | 270 | 
14 | CC1(C)CC(=O)C(N=Nc2ccc(Cl)cc2[N+](=O)[O-])=C(O)C1C#N (centres unmarked) [compound of formula (14)] | A (Good solubility (> 20 g / L)) | 42 | 437 | 222 | 
15 | COc1ccc(N=NC2=C(O)C(C#N)C(C)(C)CC2=O)c([N+](=O)[O-])c1 (centres unmarked) [compound of formula (15)] | C (Poor solubility (<10 g / L)) | 50 | 458 | 154 | 
16 | CC1(C)CC(=O)C(N=Nc2cc([N+](=O)[O-])ccc2O)=C(O)C1C#N (centres unmarked) [compound of formula (16)] | C (Poor solubility (<10 g / L)) | 17 | 423 | 249 | 
17 | CCOC(=O)C1C(O)=C(N=Nc2c(F)c(F)c(F)c(F)c2F)C(=O)CC1(C)C (centres unmarked) [compound of formula (17)] | A (Good solubility (> 20 g / L)) | 29 | 326 | 157 | 
18 | CCOC(=O)C1C([O][Cu][O]C2=C(N=Nc3ccc([N+](=O)[O-])cc3OC)C(=O)CC(C)(C)C2C(=O)OCC)=C(N=Nc2ccc([N+](=O)[O-])cc2OC)C(=O)CC1(C)C (centres unmarked) [compound of formula (18)] | C (Poor solubility (<10 g / L)) |  | 431 | 276 | 50
19 | CCOC(=O)C1C([O][Ni][O]C2=C(N=Nc3ccc([N+](=O)[O-])cc3OC)C(=O)CC(C)(C)C2C(=O)OCC)=C(N=Nc2ccc([N+](=O)[O-])cc2OC)C(=O)CC1(C)C (centres unmarked) [compound of formula (19)] | A (Good solubility (> 20 g / L)) |  | 442 | 278 | 67
20 | CCOC(=O)C1C([O][Cu][O]C2=C(N=Nc3cc(OC)c(S(N)(=O)=O)cc3OC)C(=O)CC(C)(C)C2C(=O)OCC)=C(N=Nc2cc(OC)c(S(N)(=O)=O)cc2OC)C(=O)CC1(C)C (centres unmarked) [compound of formula (20)] | B (Medium solubility (>= 10 and <= 20 g / L)) |  | 441 | 314 | 42
